Data on 3 molecules can be found in patent US12577247B2 (BUGWORKS RESEARCH, INC., priority 2021, dated 2026).

SMILES strings stand for the structures. Read-outs that look alike come from different tables or passages of the source.

In series [1] the target is T1, A2A receptor (Homo sapiens, UniProt P29274).
T1 construct: host or cells: HEK-293
In words: A2aR antagonism IC50, cAMP TR-FRET in HEK-293 cells, high concentration of adenosine (30 μM).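 Further: compounds added 10 min before adenosine, then 30 min stimulation at room temperature in buffer with 100 µM rolipram and 30 µM EHNA, signal read 1 h after detection reagents.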 The series is classed as cell-based. The following applies: HEK-293 cells expressing A2A receptor; agonist adenosine 30 μM; 2% HSA; inhibition of cAMP; read-out: A2AR IC50 (nM) (@30 μM Adenosine).

Series [2] in a line: Plasma protein binding, equilibrium dialysis, rat. The series is classed as in vitro ADME. The following applies: plasma (10% plasma, extrapolated to 100% plasma), Sprague-Dawley plasma, 18 hours at 37° C. As for the experimental part:
(§1) Protein binding is measured using the equilibrium dialysis technique. Compound is added to 10% plasma giving a concentration of 10 μM and dialysed with isotonic buffer for 18 hours at 37° C. The plasma and buffer solutions are analysed using generic LC UV/MS and the first apparent binding constant for the compound derived. The binding constant is then used to determine the % free in 100% plasma
(§2) The percentage of plasma bound/unbound fraction preparation was calculated as follows
(§3) [formula] [formula] where, • Tc=Total plasma concentration was determined by the calculated concentration on the plasma side of the chamber • Fc=[…] was determined by the calculated concentration on the buffer side of the chamber • To=Total compound concentration determined before analysis.

Series [3] is described as follows: Plasma protein binding, equilibrium dialysis, dog. The series is classed as in vitro ADME. The following applies: plasma (10% plasma, extrapolated to 100% plasma), Beagle plasma, 18 hours at 37° C. The procedure:
as §1, §2, §3

The nature of series [4]: Metabolic stability and intrinsic clearance in rat hepatocytes (with IVIVE). The following applies: Rat hepatocytes. The series is classed as in vitro ADME. As for the experimental part: (§4) The metabolic stability was expressed as the percentage of parent remaining is calculated from the peak area ratio of NCE remaining after incubation (tx) compared to the time zero (t0) incubation. The percentage of parent test compound remaining at each time point was calculated by comparing the peak area ratio of test compound after incubation (tx) with peak area of time zero (t0) incubation. Similarly, half-life (t½) was calculated using following equation:
(§5) [formula] The intrinsic clearance (Clint) was calculated using the following equations:
(§6) [formula] Scaling factors to represent […] million cells/gm liver and liver/kg body wt.

Series [5] has as its system Rat hepatocytes. Described as above. The series is classed as in vitro ADME. The following applies: Rat; for Predicted CLh: IVIVE from hepatocyte CLint; for Hepatocyte Clint: Table 6 (IVIVE). The procedure: as §4, §5, §6
Series [6] is described as follows: Metabolic stability and intrinsic clearance in dog hepatocytes (with IVIVE). It is filed as in vitro ADME. The following applies: Dog hepatocytes. As for the experimental part:
as §4, §5, §6

Series [7] has as its system Dog hepatocytes. Described as above. The series is classed as in vitro ADME. The following applies: Dog; for Predicted CLh: IVIVE from hepatocyte CLint; for Hepatocyte Clint: Table 6 (IVIVE). The procedure: as §4, §5, §6
Series [8] is described as follows: Metabolic stability and intrinsic clearance in human hepatocytes (with IVIVE). The series is classed as in vitro ADME. The following applies: Human hepatocytes. As for the experimental part:
as §4, §5, §6

Series [9] has as its system Human hepatocytes. Described as above. It is filed as in vitro ADME. The following applies: Human; for Predicted CLh: IVIVE from hepatocyte CLint; for Hepatocyte Clint: Table 6 (IVIVE). As for the experimental part:
as §4, §5, §6

A short description of series [10]: Pharmacokinetic study in mice. The following applies: for Cmax / Tmax: po. The series is classed as in vivo, CD1 mice. As for the experimental part: Intravenous (i.v) and Oral formulations for pharmacokinetic (PK) studies was formulated in different vehicles and excipients to achieve the desirable solubility for intravenous and Oral routes of administration.
Appropriate amount of the test compound was weighed and dissolved in required volume of the vehicles, followed by vertexing for a few seconds to dissolve the compound. Then the solution (or) suspension was sonicated at room temperature for 5 minutes to obtain a visually clear solution and or homogenous suspension. All the formulations were prepared freshly at room temperature before dosing.
The rodent pharmacokinetic studies were carried out in male Sprague-Dawley (SD) rats (8-12 weeks of age, weighing 280±20 g at the time of dosing) and CD1 mice (8-12 weeks of age, weighing 30-35 g body weight at the time of dosing) to estimate the plasma clearance, volume of distribution and terminal half-life, area under curve (AUC) and peak plasma concentration (Cmax) and time of peak plasma concentration (Tmax) following intravenous and oral routes of administration. The detailed experimental design is described in the Table 8 below.
Rats were anaesthetized by Isoflurane anaesthesia. The jugular and femoral veins of rat were cannulated, and the study was performed 48 h post cannulation. At each time point about 100 μL, of rat blood was collected from the jugular vein into a labelled microfuge tube containing 200 mM K2EDTA solution (20 μL, per mL of blood) and equivalent volume of heparinized saline was replaced following sample collection. Similarly, 25 μL, of mice blood was collected from the saphenous vein into a labelled microfuge tube containing 200 mM K2EDTA solution
Serial blood sampling method was used for blood collection. Blood samples were collected at pre-dose, 0.25 h, 0.5, 1, 2, 4, 6, 8 and 24-hours post dose. The blood samples were processed to obtain the plasma samples within 30 min of scheduled sampling time. All plasma samples were stored −70° C. until bioanalysis.
Plasma samples were analysed for a fit-for purpose LC-MS/MS method with a lower limit of quantification. The pharmacokinetic parameters were calculated using the non-compartmental analysis tool of validated Phoenix® WinNonlin® software (Certara, USA version 8.4) with linear up and log down method for estimating AUC.
All animals in intravenous (IV bolus) group were under fed state and animals in oral groups were fasted overnight (min 12 hr) before dose administration and food was provided 4 h post dose administration. All animals were received water ad libitum during the study period. The mean (±SD) pharmacokinetic parameters of Example 13, Example 122b & Example 39 following IV bolus and Oral dose administration in Mice/Rat and Dog is provided in Table-9.

The target in series [11] is T2, A2B receptor (Homo sapiens, UniProt P29275).
T2 sequence (P29275 1-332): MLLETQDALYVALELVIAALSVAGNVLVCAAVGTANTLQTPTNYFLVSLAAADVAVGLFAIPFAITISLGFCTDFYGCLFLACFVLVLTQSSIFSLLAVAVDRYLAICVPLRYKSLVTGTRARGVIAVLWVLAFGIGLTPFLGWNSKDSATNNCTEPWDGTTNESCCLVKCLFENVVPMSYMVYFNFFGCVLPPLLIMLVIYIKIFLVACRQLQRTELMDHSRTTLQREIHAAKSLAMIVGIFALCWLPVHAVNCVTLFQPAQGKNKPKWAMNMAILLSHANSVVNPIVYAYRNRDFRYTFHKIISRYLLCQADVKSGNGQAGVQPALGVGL
In words: A2bR antagonism IC50, cAMP TR-FRET in HEK-293 cells, high concentration of adenosine (30 μM).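 Further: compounds preincubated 10 min with cells, then adenosine stimulation 30 min at room temperature in buffer with Rolipram 100 µM and EHNA 30 µM, TR-FRET read after 1 h.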 The following applies: A2BR IC50 (nM) (@30 μM Adenosine), HEK-293 cells expressing A2B receptor; agonist adenosine 30 μM; 2% HSA; inhibition of cAMP.

Setting [12] is: CD1, mouse, plasma, iv, i.v, 15 mg/kg.
Setting [13] is: CD1, mouse, plasma, 30 mg/kg, p.o, 30 mg/kg, read-out: Cmax (head Co*/).
The mark [14] stands for this setting: CD1, mouse, plasma, 30 mg/kg, p.o, 30 mg/kg, read-out: Tmax (head Tma).

T1 sequence (P29274 whole entry): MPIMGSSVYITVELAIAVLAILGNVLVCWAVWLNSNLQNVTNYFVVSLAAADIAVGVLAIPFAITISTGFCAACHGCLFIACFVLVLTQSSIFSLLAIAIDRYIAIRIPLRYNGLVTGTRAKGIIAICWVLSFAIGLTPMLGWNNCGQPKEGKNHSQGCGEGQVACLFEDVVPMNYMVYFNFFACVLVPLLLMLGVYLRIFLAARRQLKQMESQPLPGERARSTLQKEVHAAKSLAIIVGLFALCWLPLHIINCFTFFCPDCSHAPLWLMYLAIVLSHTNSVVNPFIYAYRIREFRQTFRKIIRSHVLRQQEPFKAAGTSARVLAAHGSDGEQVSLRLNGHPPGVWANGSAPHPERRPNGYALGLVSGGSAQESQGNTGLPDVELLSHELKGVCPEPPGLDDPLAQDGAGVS

Regarding `CCc1c(C)nn2c(N)c(C#N)c(NCCc3ccn(C4(CO)CC4)n3)nc12` [Example 39, 7-amino-3-ethyl-5-((2-(1-(1-(hydroxymethyl)cyclopropyl)-1H-pyrazol-3-yl)ethyl)amino)-2-methylpyrazolo[1,5-a] pyrimidine-6-carbonitrile], the 50% inhibitory concentration (IC50) in [1] worked out at 120 nM; in series [11], 1830 nM. Also, the fraction unbound at 18 h, 10 µM is 0.249 in [2] and 0.156 in series [3]. In addition, the hepatocyte CLint at 0.5 μM in series [4] is under 8.2 µL/min/1e6 cells; in series [6], 10.8 µL/min/1e6 cells. Further, the “Predicted CLh” value is recorded as 23 mL/min/kg in series [5], 18 mL/min/kg in [7] and 12 mL/min/kg in series [9]. Besides, the “Hepatocyte Clint” value in series [5] is under 8.2 μl/min/10^6; in series [7], 10.8 μl/min/10^6; in series [8], under 8.2 µL/min/1e6 cells; in series [9], under 8.2 μl/min/10^6. Moreover, in series [10] (setting [12]), the clearance came to 58 ± 14 mL/min/kg. This molecule also showed a half-life in [10] (setting [12]) of 54 min. Also, the Vd in series [10] (CD1, mouse, plasma, iv, i.v, 15 mg/kg, read-out: Vss) was 1 L/kg. Also, the bioavailability in series [10] (CD1, mouse, plasma, oral 30 mg/kg vs IV bolus 15 mg/kg, read-out: % F (bioavailability)) was 15%. Further, the Cmax in [10] (setting [13]) was determined as 3300 ng/mL. Moreover, in series [10] (setting [14]), the time to peak (Tmax) amounted to 12 min. The “Co (head Co*/)” value in series [10] (i.v, 15 mg/kg) was 2236 ng/m. In series [10] (oral, compared with Example 13), the “Oral exposure in mice” value is given as “High oral exposure”.
Take `CCc1c(C)nn2c(N)c(C#N)c(NCCc3ccn(C4COCC4CO)n3)nc12` (single isomer, unassigned; (-)) [Example 122b, (−)-7-amino-3-ethyl-5-((2-(1-(4-(hydroxymethyl)tetrahydrofuran-3-yl)-1H-pyrazol-3-yl)ethyl)amino)-2-methyl pyrazolo[1,5-a]pyrimidine-6-carbonitrile]: the IC50 stood at 130 nM in series [1] and 521 nM in series [11]. In addition, the fraction unbound at 18 h, 10 µM in [2] was 0.139; in [3], 0.15. In addition, the hepatocyte CLint at 0.5 μM in series [4] was 4.7 µL/min/1e6 cells; in [6], under 4.1 µL/min/1e6 cells. Also, the “Predicted CLh” value in series [5] was 16 mL/min/kg; in [7], 10 mL/min/kg; in [9] it was 8.6 mL/min/kg. Further, the “Hepatocyte Clint” value in series [5] is 4.7 μl/min/10^6; in series [7], under 4.1 μl/min/10^6; in series [8], under 4.1 µL/min/1e6 cells; in series [9], under 4.1 μl/min/10^6. Further, in series [10] (CD1, mouse, plasma, 100 mg/kg oral), the AUC(0-t) is 10500 ng·h/mL. The Cmax in series [10] (CD1, mouse, plasma, 100 mg/kg, 100 mg/kg oral, read-out: C. (Cmax)) was 13800 ng/mL; in series [10] (CD1, mouse, plasma, 100 mg/kg, p.o, 100 mg/kg, read-out: Cmax (head Co*/)), 13800 ng/mL. Besides, the time of peak concentration (Tmax) in [10] (CD1, mouse, plasma, 100 mg/kg, 100 mg/kg oral, read-out: Tmax) was 15 min; in series [10] (CD1, mouse, plasma, 100 mg/kg, p.o, 100 mg/kg, read-out: Tmax (head Tma)) it was 12 min.
Regarding `Cc1cccc(CCNc2nc3c(C)c(C)nn3c(N)c2C#N)n1` [Example 13, 7-amino-5-((2-(6-methylpyridin-2-yl)ethyl)amino)-2,3-dimethylpyrazolo[1,5-a]pyrimidine-6-carbonitrile], the results for the IC50 in series [1] and in series [11] were 300 nM and 2320 nM, respectively. The fraction unbound at 18 h, 10 µM in series [2] was 0.0964; in series [3], 0.09. Moreover, the results for the hepatocyte CLint at 0.5 μM in series [4] and in series [6] were 34 µL/min/1e6 cells and 9.5 µL/min/1e6 cells, respectively. In addition, the “Predicted CLh” value is 41 mL/min/kg in [5], 17 mL/min/kg in series [7] and 12 mL/min/kg in series [9]. The “Hepatocyte Clint” value in [5] is 34 μl/min/10^6; in [7], 9.5 μl/min/10^6; in series [8] it was under 8.2 µL/min/1e6 cells; in series [9], under 8.2 μl/min/10^6. Also, the Cmax in [10] (setting [13]) turned out to be 236 ng/mL. For the same molecule, in [10] (setting [14]), the Tmax was determined as 12 min.

What is called IC50 is the concentration that gives 50% inhibition. For orientation: fraction unbound means free concentration divided by total concentration. Usually hepatocyte CLint stands for the capacity of the preparation to metabolise the compound, expressed as a volume cleared per time. One may read the clearance as the volume of plasma or blood freed of the substance per unit of time. What is called half-life is how long it takes for the measured level to halve. As a reminder, the bioavailability is dose-corrected exposure relative to a reference, in per cent. What is called Tmax is the time from dosing to the highest level. In general, AUC(0-t) refers to exposure summed from dosing to a finite time, without extrapolation to infinity. High values mean more exposure, low ones less exposure.
